Laboratory results from patent US20240269223A1, “PROPHYLACTIC OR THERAPEUTIC AGENT FOR ACUTE RENAL FAILURE” (KYOWA HAKKO BIO CO., LTD., priority 2021, published 2024).

How the values were obtained:
[1] = test system: rat ischemic acute renal injury model with unilateral nephrectomy; assay: Rat ischemic acute renal injury model with unilateral nephrectomy; type: in vivo; details: 200 mg/kg GSSSG intraperitoneal once a day x4 (day -4 to -1) before 40 min ischemia/reperfusion, versus control group
Method: GSSSG dihydrate produced by the method described in Patent Literature 1 was carefully crushed in a mortar for 10 minutes or longer. 1,333 mg (1,250 mg in terms of anhydride) of GSSSG dihydrate was weighed out. 1,333 mg of the crushed GSSSG dihydrate was added to 40 mL of a normal saline, and the mixture was stirred in a suspended state for 5 minutes. 0.25 to 0.50 g of sodium bicarbonate was added to the suspension and dissolved. This GSSSG solution was transferred to a measuring cylinder, and a normal saline was added to make up 50 mL to obtain a preparation solution (final concentration: 25 mg/mL). The obtained preparation solution was filtered with a filter (0.22 μm filter) and used as an administration sample.
In the test, 4-week old male SD rats (body weight 99 to 113 g)
were used. A 16-day preliminary breeding period was set for the obtained animals. Rats with no abnormalities in body weight change and general condition were used for grouping.
One kidney was removed from rats in which no abnormalities were observed after the preliminary breeding period by the following method. […]
The administration sample was administered into the peritoneal cavity of rats from which the right kidney was removed using a disposable polypropylene syringe with an injection needle. […] The amount of solution administered was calculated at 8 mL/kg based on the body weight on the first day of administration. […]

[2] = test system: rat bilateral kidney simultaneous ligation ischemic acute renal injury model; assay: Rat bilateral kidney simultaneous ligation ischemic acute renal injury model; type: in vivo; details: for Blood creatinine (CRE), before administration / Blood urea nitrogen (UN), before administration: baseline, day before administration; for Blood creatinine (CRE), before administration / Blood urea nitrogen (UN), before administration / GDF-15 (growth differentiation factor), 48 hours after ischemia reperfusion / Blood creatinine (CRE), 48 hours after ischemia reperfusion / Blood urea nitrogen (UN), 48 hours after ischemia reperfusion: plasma; for GDF-15 (growth differentiation factor), 48 hours after ischemia reperfusion: ELISA, control 1532 ± 246, placebo surgery 75.2 ± 4.3; for Blood creatinine (CRE), 48 hours after ischemia reperfusion: control 2.98 ± 0.56, placebo surgery 0.24 ± 0.01; for Blood urea nitrogen (UN), 48 hours after ischemia reperfusion: control 154.6 ± 19.5, placebo surgery 14.4 ± 1.1
Method: GSSSG dihydrate produced by the method described in Patent Literature 1 was carefully crushed in a mortar for 10 minutes or longer. A required amount of GSSSG dihydrate was weighed out. 0.5 w/v % methylcellulose (hereinafter abbreviated to as MC) was added to the crushed GSSSG dihydrate to prepare a suspension at a concentration of 10 mg/mL, and used as an administration sample for a high-dose administration group. The 10 mg/mL suspension was diluted with 0.5 w/v % MC to prepare a 4 mg/mL suspension, and used as an administration sample for a low-dose administration group.
In the test, 5-week old male SD rats (body weight 136 to 154 g) were used. An 8-day preliminary breeding period was set for the obtained animals. Rats with no abnormalities in body weight change and general condition were used for grouping.
The administration method was oral administration. Forced oral administration was performed using a disposable polypropylene syringe with a metal oral gavage tube for rats. The amount of solution administered was 5 ml/kg for both the high dose group and the low dose group based on the body weight closest to that of the day of administration. Administration was performed a total of 5 times: 1 day before, 2 days before, and 3 days before the ischemia treatment was performed, 1 hour before the ischemia treatment, and 2 hours after the reperfusion treatment.
The ischemia and reperfusion treatments were performed as follows. Anesthesia was performed by intraperitoneal administration of 45 mg/kg (1 mL/kg) of pentobarbital sodium and subcutaneous administration of 1 mg/kg (1 mL/kg) of butorphanol tartrate. Both dorsal parts where the kidneys were located were shaved. Then, the animals were treated on a heater mat. The surgical site was disinfected with about 70% of an alcohol and then incised using scissors. After both kidneys of the animals in Group 2 to Group 4 in Table 3 were exposed, the renal arteries and veins of the left kidney and the right kidney in order were clamped using Klemme (clip power 120 g) for 40 minutes. During clamping, the kidney was returned to the body in order to prevent kidney desiccation. During reperfusion, it was confirmed that the blood color of the kidney was returned to normal (red), and the laparotomy wound was closed and disinfected with Isodine. In the animals of the Group 1, both kidneys were exposed, and returned to the peritoneal cavity without ischemia treatment, and the laparotomy wound was closed and disinfected with Isodine 40 minutes after incision. After suturing, the rats were returned to the original breeding cage.
On the day before administration, without anesthesia, about 0.25 mL of blood was collected from the tail vein using a heparin Na-treated capillary (DRUMMOND). The collected blood was cooled on ice and then separated using a centrifuge (4° C., 2,200×g, for 15 minutes), and the UN concentration and the CRE concentration were measured using the obtained plasma.
48 hours after the reperfusion treatment, under isoflurane anesthesia, all blood was collected from abdominal aorta, using a winged injection needle and a heparin Na-treated vacuum blood collection tube. The collected blood was cooled on ice and then separated using a centrifuge (4° C., 2,150×g, for 15 minutes), and UN, CRE and GDF-15 (Mouse/Rat GDF-15 Quantikine ELISA Kit, R&D Systems, Inc) were measured using the obtained plasma.

N[C@@H](CCC(=O)N[C@@H](CSSSC[C@H](NC(=O)CC[C@H](N)C(=O)O)C(=O)NCC(=O)O)C(=O)NCC(=O)O)C(=O)O [GSSSG, glutathione trisulfide]
UN value (urea nitrogen concentration in plasma) ([1]; FIG. 1): decreased | CRE value (creatinine concentration in plasma) ([1]; FIG. 2): decreased | Blood creatinine (CRE), before administration ([2]; 20 mg/kg oral group): 0.21 ± 0.00 mg/dL | Blood urea nitrogen (UN), before administration ([2]; 20 mg/kg oral group): 13.5 ± 0.5 mg/dL | GDF-15 (growth differentiation factor), 48 hours after ischemia reperfusion ([2]; 20 mg/kg oral x5): 1673 ± 595 pg/mL | Blood creatinine (CRE), 48 hours after ischemia reperfusion ([2]; 20 mg/kg oral x5): 2.29 ± 0.52 mg/dL | Blood urea nitrogen (UN), 48 hours after ischemia reperfusion ([2]; 20 mg/kg oral x5): 136.8 ± 24.6 mg/dL | therapeutic effect ([2]; 50 mg/kg oral administration group): a therapeutic effect was exhibited | GDF-15 concentration, change versus control group ([2]; 50 mg/kg oral group, 48 hours after reperfusion): slightly decreased | Blood creatinine (CRE), before administration ([2]; 50 mg/kg oral group): 0.20 ± 0.00 mg/dL | Blood urea nitrogen (UN), before administration ([2]; 50 mg/kg oral group): 11.5 ± 0.4 mg/dL | GDF-15 (growth differentiation factor), 48 hours after ischemia reperfusion ([2]; 50 mg/kg oral x5): 1327 ± 300 pg/mL | Blood creatinine (CRE), 48 hours after ischemia reperfusion ([2]; 50 mg/kg oral x5): 2.07 ± 0.45 mg/dL | Blood urea nitrogen (UN), 48 hours after ischemia reperfusion ([2]; 50 mg/kg oral x5): 106.2 ± 16.5 mg/dL | UN value, change versus control group ([2]; GSSSG administration group, 20 and 50 mg/kg oral, 48 hours after reperfusion, Table 5): decreased in a dose-dependent manner | CRE value, change versus control group ([2]; GSSSG administration group, 20 and 50 mg/kg oral, 48 hours after reperfusion, Table 6): decreased in a dose-dependent manner
